# Measured values: US6355633B1, “Aryl sulfonic acids and derivatives as FSH antagonists” (American Home Products Corporation, priority 1999, dated 2002)
# Target: T1, FSH receptor (Homo sapiens, UniProt P23945)
# T1 sequence (P23945 18-695): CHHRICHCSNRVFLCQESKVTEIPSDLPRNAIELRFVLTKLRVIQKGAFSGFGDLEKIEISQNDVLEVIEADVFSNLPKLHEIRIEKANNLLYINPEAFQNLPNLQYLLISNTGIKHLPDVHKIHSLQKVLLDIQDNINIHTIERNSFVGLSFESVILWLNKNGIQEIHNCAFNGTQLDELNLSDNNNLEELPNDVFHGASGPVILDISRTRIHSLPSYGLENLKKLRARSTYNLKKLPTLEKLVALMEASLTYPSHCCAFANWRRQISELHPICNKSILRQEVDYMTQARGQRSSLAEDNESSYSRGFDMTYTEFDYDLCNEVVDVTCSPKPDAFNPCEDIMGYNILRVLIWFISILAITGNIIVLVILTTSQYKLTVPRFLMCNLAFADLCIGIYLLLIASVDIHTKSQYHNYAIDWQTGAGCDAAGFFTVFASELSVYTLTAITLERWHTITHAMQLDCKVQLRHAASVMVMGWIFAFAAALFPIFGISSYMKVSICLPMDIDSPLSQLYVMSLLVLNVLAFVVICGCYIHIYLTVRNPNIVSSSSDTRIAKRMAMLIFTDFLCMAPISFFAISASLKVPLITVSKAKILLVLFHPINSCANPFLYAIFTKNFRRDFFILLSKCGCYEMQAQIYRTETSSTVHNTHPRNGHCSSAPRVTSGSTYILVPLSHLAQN
# Assay: In Vitro Bio-test Procedure of Agonists and Antagonists to the FSH Receptor (cAMP accumulation in CHO-3D2 cells)
# Type: cell-based
# Parameters: expressed in transfected cells; host or cells: CHO-3D2 cells
# Conditions: not given
# How it was run: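 CHO-3D2 cells (30,000/well, plated one day earlier) preincubated 30-45 min, then challenged with compounds in Optimem/0.1% BSA for 30 minutes at 37 deg C; agonist mode at 5 concentrations, antagonist mode against ED20 FSH. cAMP accumulation in medium measured by radioimmunoassay (fmol/mL); ANOVA with Dunnett's or Duncan's test.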
row,Compound,IC50 [nM]
1,"COCCOCCOc1ccc(C(=O)Nc2ccc(/C=C/c3ccc(NC(=O)c4ccc(OCCOCCOC)c(S(=O)(=O)N5CCOCC5)c4)cc3S(=O)(=O)O)c(S(=O)(=O)O)c2)cc1S(=O)(=O)N1CCOCC1 [Example 30a, 2,2′-[(E)-1,2-Ethenediyl]bis[5-[[4-[2-(2-methoxyethoxy)ethoxy]-3-(4-morpholinylsulfonyl)benzoyl]amino]benzenesulfonic Acid]]",1600
2,"CS(=O)(=O)c1ccc(C(=O)Nc2ccc(/C=C/c3ccc(NC(=O)c4ccc(S(C)(=O)=O)c(S(=O)(=O)N5CCOCC5)c4)cc3S(=O)(=O)O)c(S(=O)(=O)O)c2)cc1S(=O)(=O)N1CCOCC1 [Example 30d, 2,2′-[(E)-1,2-Ethenediyl]bis[5-[[4-(methylsulfonyl)-3-(4-morpholinylsulfonyl)benzoyl]amino]benzenesulfonic Acid]]",1600
3,CSc1ccc(C(=O)Nc2ccc(/C=C/c3ccc(NC(=O)c4ccc(S(C)(=O)=O)c([N+](=O)[O-])c4)cc3S(=O)(=O)O)c(S(=O)(=O)O)c2)cc1S(=O)(=O)N1CCOCC1 [Example 30e],900
4,COCCNS(=O)(=O)c1cc(C(=O)Nc2ccc(/C=C/c3ccc(NC(=O)c4ccc(S(C)(=O)=O)c([N+](=O)[O-])c4)cc3S(=O)(=O)O)c(S(=O)(=O)O)c2)ccc1OC [Example 30f],3100
5,"COc1ccc(C(=O)Nc2ccc(/C=C/c3ccc(NC(=O)c4ccc(OC)c(S(=O)(=O)N5CCS(=O)(=O)CC5)c4)cc3S(=O)(=O)O)c(S(=O)(=O)O)c2)cc1S(=O)(=O)N1CCS(=O)(=O)CC1 [Example 30k, 2,2′-[(E)-1,2-Ethenediyl]bis[5-[[3-[(1,1-dioxido-4-thiomorpholinyl)sulfonyl]-4-methoxybenzoyl]amino]benzenesulfonic Acid]]",1500
6,"COCCNS(=O)(=O)c1cc(C(=O)Nc2ccc(/C=C/c3ccc(NC(=O)c4ccc(OC)c(S(=O)(=O)NCCOC)c4)cc3S(=O)(=O)O)c(S(=O)(=O)O)c2)ccc1OC [Example 30m, 2,2′-[(E)-1,2-Ethenediyl]bis[5-[[4-methoxy-3-[[(2-methoxyethyl)amino]sulfonyl]benzoyl]amino]benzenesulfonic Acid]]",5800
7,"CS(=O)(=O)c1ccc(C(=O)Nc2ccc(/C=C/c3ccc(NC(=O)c4ccc(S(C)(=O)=O)cc4)cc3S(=O)(=O)O)c(S(=O)(=O)O)c2)cc1 [Example 30q, 2,2′-[(E)-1,2-Ethenediyl]bis[5-[[4-(methylsulfonyl)benzoyl]amino]benzenesulfonic Acid]]",12000
8,"O=C(Nc1ccc(/C=C/c2ccc(NC(=O)c3ccc(OC4CCOCC4)c(S(=O)(=O)N4CCOCC4)c3)cc2S(=O)(=O)O)c(S(=O)(=O)O)c1)c1ccc(OC2CCOCC2)c(S(=O)(=O)N2CCOCC2)c1 [Example 30r, 2,2′-[(E)-1,2-Ethenediyl]bis[5-[[3-(4-morpholinylsulfonyl)-4-[(tetrahydro-2H-pyran-4-yl)oxy]benzoyl]amino]benzenesulfonic Acid]]",2000
9,"COc1ccc(C(=O)Nc2ccc(/C=C/c3ccc(NC(=O)c4ccc(OC)c(S(=O)(=O)N5CCOCC5)c4)cc3S(=O)(=O)O)c(S(=O)(=O)O)c2)cc1S(=O)(=O)N1CCOCC1 [Example 30s, 2,2′-[(E)-1,2-Ethenediyl]bis[5-[[4-methoxy-3-(4-morpholinylsulfonyl)benzoyl]amino]benzenesulfonic Acid]]",4400
10,"COCCOc1ccc(C(=O)Nc2ccc(/C=C/c3ccc(NC(=O)c4ccc(OCCOC)c(S(=O)(=O)N5CCOCC5)c4)cc3S(=O)(=O)O)c(S(=O)(=O)O)c2)cc1S(=O)(=O)N1CCOCC1 [Example 30t, 2,2′-[(E)-1,2-Ethenediyl]bis[5-[[4-(2-methoxyethoxy)-3-(4-morpholinylsulfony)benzoyl]amino]benzenesulfonic Acid]]",1400
11,"CCS(=O)(=O)c1ccc(C(=O)Nc2ccc(/C=C/c3ccc(NC(=O)c4ccc(S(=O)(=O)CC)cc4)cc3S(=O)(=O)O)c(S(=O)(=O)O)c2)cc1 [Example 32f, 2,2′-[(E)-1,2-Ethenediyl]bis[5-[[4-(ethylsulfonyl)benzoyl]amino]benzenesulfonic Acid]]",4200
12,"COc1ccc(C(=O)Nc2ccc(/C=C/c3ccc(NC(=O)c4ccc(OC)c(S(=O)(=O)N5CCSCC5)c4)cc3S(=O)(=O)O)c(S(=O)(=O)O)c2)cc1S(=O)(=O)N1CCSCC1 [Example 33d, 2,2′-[(E)-1,2-Ethenediyl]bis[5-[[4-methoxy-3-(4-thiomorpholinylsulfonyl)benzoyl]amino]benzenesulfonic Acid]]",2600
13,"COc1ccc(C(=O)Nc2ccc(/C=C/c3ccc(NC(=O)c4ccc(OC)c(S(=O)(=O)N5CCCC5)c4)cc3S(=O)(=O)O)c(S(=O)(=O)O)c2)cc1S(=O)(=O)N1CCCC1 [Example 33e, 2,2′-[(E)-1,2-Ethenediyl]bis[5-[[4-methoxy-3-(1-pyrrolidinylsulfonyl)benzoyl]amino]benzenesulfonic Acid]]",1500
14,"COc1ccc(C(=O)Nc2ccc(/C=C/c3ccc(NC(=O)c4ccc(OC)c(S(=O)(=O)N5CCN(C(C)=O)CC5)c4)cc3S(=O)(=O)O)c(S(=O)(=O)O)c2)cc1S(=O)(=O)N1CCN(C(C)=O)CC1 [Example 34a, 2,2′-[(E)-1,2-Ethenediyl]bis[5-[[3-[(4-acetyl-1-piperazinyl)sulfonyl]-4-methoxybenzoyl]amino]benzenesulfonic Acid]]",3300
15,"COc1ccc(C(=O)Nc2ccc(/C=C/c3ccc(NC(=O)c4ccc(OC)c(S(=O)(=O)N5CCN(C=O)CC5)c4)cc3S(=O)(=O)O)c(S(=O)(=O)O)c2)cc1S(=O)(=O)N1CCN(C=O)CC1 [Example 34b, 2,2′-[(E)-1,2-Ethenediyl]bis[5-[[3-[(4-formyl-1-piperazinyl)sulfonyl]-4-methoxybenzoyl]amino]benzenesulfonic Acid]]",1700
16,"COc1ccc(C(=O)Nc2ccc(CCc3ccc(NC(=O)c4ccc(S(C)(=O)=O)cc4)cc3S(=O)(=O)O)c(S(=O)(=O)O)c2)cc1S(=O)(=O)N1CCOCC1 [Example 43a, 5-[[4-Methoxy-3-(4-morpholinylsulfonyl)benzoyl]amino]-2-[2-[4-[[4-(methylsulfonyl)benzoyl]amino]-2-sulfophenyl]ethyl]benzenesulfonic Acid]",8700

# Same assay, conditions: antagonist mode, inhibition of hFSH-induced cAMP accumulation (ED20 of FSH, […]), CHO-3D2 cells
row,Compound,IC50 [nM]
1,"2,2′-[(E)-1,2-Ethenediyl]bis[5-[[4-(methylthio)-3-(4-morpholinylsulfonyl)benzoyl]amino]benzenesulfonic Acid] [Example 30b]",1300
2,"CS(=O)(=O)c1ccc(C(=O)Nc2ccc(/C=C/c3ccc(NC(=O)c4ccc(S(C)(=O)=O)c([N+](=O)[O-])c4)cc3S(=O)(=O)O)c(S(=O)(=O)O)c2)cc1[N+](=O)[O-] [Example 30c, 2.2′-[(E)-1,2-Ethenediyl]bis[5-[[(4-methylsulfonyl)-3-(nitro)-benzoyl]amino]benzenesulfonic Acid]]",3600
3,COc1ccc(C(=O)Nc2ccc(/C=C/c3ccc(NC(=O)c4ccc(S(C)(=O)=O)cc4)cc3S(=O)(=O)O)c(S(=O)(=O)O)c2)cc1S(=O)(=O)N1CCOCC1 [Example 30g],2500
